Key:
Format in all cases: functional
SNB-75 = test: Cytotoxicity against Homo sapiens (human) SNB75 cells assessed as growth inhibition at 10 uM after 48 hr by coulter counter analysis; conditions: SNB-75, 48 h, read-out: GI
SK-MEL-2 = test: Cytotoxicity against Homo sapiens (human) SK-MEL-2 cells assessed as growth inhibition at 10 uM after 48 hr by coulter counter analysis; conditions: SK-MEL-2, 48 h, read-out: GI
OVCAR-8 = test: Cytotoxicity against Homo sapiens (human) OVCAR8 cells assessed as growth inhibition at 10 uM after 48 hr by coulter counter analysis; conditions: OVCAR-8, 48 h, read-out: GI
KM12 = test: Cytotoxicity against Homo sapiens (human) KM12 cells assessed as growth inhibition at 10 uM after 48 hr by coulter counter analysis; conditions: KM12, 48 h, read-out: GI
SK-MEL-5 = test: Cytotoxicity against Homo sapiens (human) SK-MEL-5 cells assessed as growth inhibition at 10 uM after 48 hr by coulter counter analysis; conditions: SK-MEL-5, 48 h, read-out: GI
HCC 2998 = test: Cytotoxicity against Homo sapiens (human) HCC2998 cells assessed as growth inhibition at 10 uM after 48 hr by coulter counter analysis; conditions: HCC 2998, 48 h, read-out: GI
Hs-578T = test: Cytotoxicity against Homo sapiens (human) Hs578T cells assessed as growth inhibition at 10 uM after 48 hr by coulter counter analysis; conditions: read-out: GI
HCT-116 = test: Cytotoxicity against Homo sapiens (human) HCT116 cells assessed as growth inhibition at 10 uM after 48 hr by coulter counter analysis; conditions: HCT-116, 48 h, read-out: GI
K562 = test: Cytotoxicity against Homo sapiens (human) K562 cells assessed as growth inhibition at 10 uM after 48 hr by coulter counter analysis; conditions: K562, 48 h, read-out: GI
SN12C = test: Cytotoxicity against Homo sapiens (human) SN12C cells assessed as growth inhibition at 10 uM after 48 hr by coulter counter analysis; conditions: read-out: GI
CAKI-1 = test: Cytotoxicity against Homo sapiens (human) Caki1 cells assessed as growth inhibition at 10 uM after 48 hr by coulter counter analysis; conditions: CAKI-1, 48 h, read-out: GI
T47D = test: Cytotoxicity against Homo sapiens (human) T47D cells assessed as growth inhibition at 10 uM after 48 hr by coulter counter analysis; conditions: read-out: GI
IGROV-1 = test: Cytotoxicity against Homo sapiens (human) IGROV1 cells assessed as growth inhibition at 10 uM after 48 hr by coulter counter analysis; conditions: IGROV-1, 48 h, read-out: GI
UACC-257 = test: Cytotoxicity against Homo sapiens (human) UACC257 cells assessed as growth inhibition at 10 uM after 48 hr by coulter counter analysis; conditions: UACC-257, 48 h, read-out: GI
OVCAR-3 = test: Cytotoxicity against Homo sapiens (human) OVCAR3 cells assessed as growth inhibition at 10 uM after 48 hr by coulter counter analysis; conditions: OVCAR-3, 48 h, read-out: GI
UO-31 = test: Cytotoxicity against Homo sapiens (human) UO31 cells assessed as growth inhibition at 10 uM after 48 hr by coulter counter analysis; conditions: UO-31, 48 h, read-out: GI
HT-29 = test: Cytotoxicity against Homo sapiens (human) HT-29 cells assessed as growth inhibition at 10 uM after 48 hr by coulter counter analysis; conditions: HT-29, 48 h, read-out: GI
MDA-MB-468 = test: Cytotoxicity against Homo sapiens (human) MDA-MB-468 cells assessed as growth inhibition at 10 uM after 48 hr by coulter counter analysis; conditions: MDA-MB-468, 48 h, read-out: GI
EKVX = test: Cytotoxicity against Homo sapiens (human) EKVX cells assessed as growth inhibition at 10 uM after 48 hr by coulter counter analysis; conditions: read-out: GI
MDA-MB-231 = test: Cytotoxicity against Homo sapiens (human) MDA-MB-231 cells assessed as growth inhibition at 10 uM after 48 hr by coulter counter analysis; conditions: MDA-MB-231, 48 h, read-out: GI
786-0 = test: Cytotoxicity against Homo sapiens (human) 786-0 cells assessed as growth inhibition at 10 uM after 48 hr by coulter counter analysis; conditions: 786-0, 48 h, read-out: GI
SR = test: Cytotoxicity against Homo sapiens (human) SR cells assessed as growth inhibition at 10 uM after 48 hr by coulter counter analysis; conditions: read-out: GI
SW-620 = test: Cytotoxicity against Homo sapiens (human) SW620 cells assessed as growth inhibition at 10 uM after 48 hr by coulter counter analysis; conditions: SW-620, 48 h, read-out: GI
NCI-H226 = test: Cytotoxicity against Homo sapiens (human) NCI-H226 cells assessed as growth inhibition at 10 uM after 48 hr by coulter counter analysis; conditions: NCI-H226, 48 h, read-out: GI
COLO 205 = test: Cytotoxicity against Homo sapiens (human) COLO205 cells assessed as growth inhibition at 10 uM after 48 hr by coulter counter analysis; conditions: COLO 205, 48 h, read-out: GI
HOP-62 = test: Cytotoxicity against Homo sapiens (human) HOP62 cells assessed as growth inhibition at 10 uM after 48 hr by coulter counter analysis; conditions: HOP-62, 48 h, read-out: GI
PC-3 = test: Cytotoxicity against Homo sapiens (human) PC3 cells assessed as growth inhibition at 10 uM after 48 hr by coulter counter analysis; conditions: PC-3, 48 h, read-out: GI
SF-268 = test: Cytotoxicity against Homo sapiens (human) SF268 cells assessed as growth inhibition at 10 uM after 48 hr by coulter counter analysis; conditions: SF-268, 48 h, read-out: GI
HCT-15 = test: Cytotoxicity against Homo sapiens (human) HCT15 cells assessed as growth inhibition at 10 uM after 48 hr by coulter counter analysis; conditions: HCT-15, 48 h, read-out: GI
RXF 393 = test: Cytotoxicity against Homo sapiens (human) RXF393 cells assessed as growth inhibition at 10 uM after 48 hr by coulter counter analysis; conditions: RXF 393, 48 h, read-out: GI
SNB-19 = test: Cytotoxicity against Homo sapiens (human) SNB19 cells assessed as growth inhibition at 10 uM after 48 hr by coulter counter analysis; conditions: SNB-19, 48 h, read-out: GI
SF-539 = test: Cytotoxicity against Homo sapiens (human) SF539 cells assessed as growth inhibition at 10 uM after 48 hr by coulter counter analysis; conditions: SF-539, 48 h, read-out: GI
MOLT-4 = test: Cytotoxicity against Homo sapiens (human) MOLT4 cells assessed as growth inhibition at 10 uM after 48 hr by coulter counter analysis; conditions: MOLT-4, 48 h, read-out: GI
A549 = test: Cytotoxicity against Homo sapiens (human) A549 cells assessed as growth inhibition at 10 uM after 48 hr by coulter counter analysis; conditions: A549, 48 h, read-out: GI

Row | SMILES | inhibition of growth at 10 µM (SNB-75) | inhibition of growth at 10 µM (SK-MEL-2) | inhibition of growth at 10 µM (OVCAR-8) | inhibition of growth at 10 µM (KM12) | inhibition of growth at 10 µM (SK-MEL-5) | inhibition of growth at 10 µM (HCC 2998) | inhibition of growth at 10 µM (Hs-578T) | inhibition of growth at 10 µM (HCT-116) | inhibition of growth at 10 µM (K562) | inhibition of growth at 10 µM (SN12C) | inhibition of growth at 10 µM (CAKI-1) | inhibition of growth at 10 µM (T47D) | inhibition of growth at 10 µM (IGROV-1) | inhibition of growth at 10 µM (UACC-257) | inhibition of growth at 10 µM (OVCAR-3) | inhibition of growth at 10 µM (UO-31) | inhibition of growth at 10 µM (HT-29) | inhibition of growth at 10 µM (MDA-MB-468) | inhibition of growth at 10 µM (EKVX) | inhibition of growth at 10 µM (MDA-MB-231) | also measured
1 | COc1ccc(-c2nc3c(c(=O)[nH]2)C(c2ccc(Cl)cc2)C2=C(CCCC2)N3)cc1OC (configuration not stated) | 11.2% | < 10% | < 10% | < 10% | 13% | < 10% | < 10% | < 10% | < 10% | 12% | < 10% | < 10% | < 10% | < 10% | < 10% | 41.7% | < 10% | < 10% | < 10% | 12.6% | inhibition of growth at 10 µM (786-0): < 10%; inhibition of growth at 10 µM (SR): < 10%; inhibition of growth at 10 µM (SW-620): < 10%; inhibition of growth at 10 µM (NCI-H226): 11%; inhibition of growth at 10 µM (COLO 205): < 10%; inhibition of growth at 10 µM (HOP-62): 10.2%; inhibition of growth at 10 µM (PC-3): 12.5%; inhibition of growth at 10 µM (SF-268): < 10%; inhibition of growth at 10 µM (HCT-15): < 10%; inhibition of growth at 10 µM (RXF 393): < 10%; inhibition of growth at 10 µM (SNB-19): < 10%; inhibition of growth at 10 µM (SF-539): < 10%; inhibition of growth at 10 µM (MOLT-4): < 10%; inhibition of growth at 10 µM (A549): < 10%
2 | N#CCc1nc2c(c(=O)[nH]1)C(c1ccc(Cl)cc1)C1=C(CCCC1)N2 (configuration not stated) | 20.4% | 10% | < 10% | < 10% | < 10% | < 10% | < 10% | < 10% | < 10% | 15.5% | < 10% | 14.1% | < 10% | < 10% | < 10% | 37.7% | < 10% | < 10% | 13% | < 10% | inhibition of growth at 10 µM (786-0): < 10%; inhibition of growth at 10 µM (SR): < 10%; inhibition of growth at 10 µM (SW-620): < 10%; inhibition of growth at 10 µM (NCI-H226): < 10%; inhibition of growth at 10 µM (COLO 205): 10.4%; inhibition of growth at 10 µM (HOP-62): 12.5%; inhibition of growth at 10 µM (PC-3): < 10%; inhibition of growth at 10 µM (SF-268): < 10%; inhibition of growth at 10 µM (HCT-15): < 10%; inhibition of growth at 10 µM (RXF 393): < 10%; inhibition of growth at 10 µM (SNB-19): < 10%; inhibition of growth at 10 µM (SF-539): < 10%; inhibition of growth at 10 µM (MOLT-4): < 10%; inhibition of growth at 10 µM (A549): < 10%
3 | O=c1[nH]c(-c2ccccc2)nc2c1C(c1ccc(Cl)cc1)C1=C(CCCC1)N2 (configuration not stated) | 15.5% | < 10% | < 10% | < 10% | 17.8% | < 10% | < 10% | < 10% | 11.2% | < 10% | < 10% | 15.5% | < 10% | < 10% | < 10% | 43.3% | < 10% | < 10% | < 10% | < 10% | inhibition of growth at 10 µM (786-0): < 10%; inhibition of growth at 10 µM (SR): < 10%; inhibition of growth at 10 µM (SW-620): < 10%; inhibition of growth at 10 µM (NCI-H226): 12.3%; inhibition of growth at 10 µM (COLO 205): < 10%; inhibition of growth at 10 µM (HOP-62): < 10%; inhibition of growth at 10 µM (PC-3): < 10%; inhibition of growth at 10 µM (SF-268): < 10%; inhibition of growth at 10 µM (HCT-15): < 10%; inhibition of growth at 10 µM (RXF 393): < 10%; inhibition of growth at 10 µM (SNB-19): < 10%; inhibition of growth at 10 µM (SF-539): < 10%; inhibition of growth at 10 µM (MOLT-4): 13.6%; inhibition of growth at 10 µM (A549): < 10%

— ChEMBL document CHEMBL3045802, “Synthesis and in vitro antitumor activity of new quinoline, pyrimido[4,5-b]quinoline, [1,2,3]triazino[4,5-b]quinoline, and [1,2,4]triazolo[2,3:3,4]pyrimido[6,5-b]quinoline analogs” (2013)
